The source of these data is US11155552B2, “Rutaecarpine analogs and applications thereof” (TAIPEI MEDICAL UNIVERSITY, priority 2018, dated 2021).

Structures are written as SMILES.

One series deals with RAW264.7 macrophages. The series is described as follows: NO production (nitrite, Griess reagent) by LPS-treated RAW264.7 macrophages. Format: cell-based. The note with it: LPS 40 ng/mL co-treatment 24 h; 0-20 μM; FIG. 1(a). The method, then: The RAW264.7 macrophage cell line and A2780 ovarian carcinoma cells were grown in Dulbecco's modified Eagle medium (DMEM) containing 10% fetal bovine serum (FBS), 100 U/mL penicillin, 100 μg/mL streptomycin, 1 mM sodium pyruvate, 4.5 g/L glucose, 4 mM 1-glutamine, and 1.5 g/L sodium bicarbonate at 37° C. in a humidified atmosphere with 5% CO2. Primary human aortic ECs (HAECs) were grown in a MesoEndo Endothelial Cell Growth Medium Kit (Cell Applications, San Diego, Calif., USA) supplemented with 10% FBS at 37° C. in a humidified atmosphere with 5% CO2.
(§1) NO production was evaluated by measuring the nitrite concentration in supernatants of cultured RAW264.7 macrophages. Cells were first seeded at a density of 2×10^5 cells/mL in 24-well plates for 24 h, followed by co-treatment with different concentrations of F-RUT with lipopolysaccharide (LPS) (40 ng/mL) for another 24 h. The amount of nitrite in cell culture supernatants was detected using the Griess reagent (1% sulfanilamide in 5% phosphoric acid and 0.1% naphthylethylenediamine dihydrochloride in water). Data are reported as the mean±standard error of the mean (SEM) values of three independent determinations.
For orientation: Nitrite, measured by Griess reagent, commonly stands in for NO production.

In a further series the test system is TNF-α. The series is described as follows: TNF-α release by LPS-treated RAW264.7 macrophages (mouse TNF-α Quantikine kit). It counts as cell-based. The note with it: FIG. 1(b). The protocol:
FIGS. 1A thru 1C show the effects of 10-fluoro-2-methoxyrutaecarpine (F-RUT) on nitric oxide (NO) and tumor necrosis factor (TNF)-α release by lipopolysaccharide (LPS)-treated (40 ng/mL) RAW264.7 macrophages: (a) NO levels were detected in culture medium using the Griess reaction; (b) TNF-α release in cell supernatants was detected using a mouse TNF-α Quantikine kit; (c) Cell viability upon F-RUT and rutaecarpine (RUT) treatment for 24 h in an MTT assay. Values are expressed as the mean±SE. *p<0.05, **p<0.01.
as §1

For a further series, the system named is RAW264.7. In words: MTT cell viability assay, RAW264.7. Format: cell-based. The protocol: (§2) An MTT assay to test cell viability was performed based on the conversion of the yellow tetrazolium salt to the purple formazan product. Cells (10^4 cells/well) were grown in a 96-well plate supplemented with standard culture medium. Cells were treated with RUT and F-RUT (0-20 μM) for 24 h. An MTT stock solution (5 mg of MTT/mL of phosphate-buffered saline; PBS) was added to the growing cultures for 2 h. The absorbance was measured with a spectrophotometer at 560 nm. DMSO alone was measured as a reading control. Data were reported as the mean±SEM values of five independent determinations.

Another series has as its system H460. The series is described as follows: MTT cell viability assay, H460. It counts as cell-based. To be noted: H460 cells; 0-20 μM; 24 h; FIG. 1(c). The protocol: as §2
For orientation: Tetrazolium dyes change colour on reduction, which living cells bring about.

The next series concerns CL1-3. The series is described as follows: MTT cell viability assay, CL1-3. It counts as cell-based. To be noted: CL1-3 cells; 0-20 μM; 24 h; FIG. 1(c). The protocol:
as §2

The test system of a further series is iNOS. In words: iNOS protein expression in LPS-treated RAW264.7 macrophages (Western blot). Format: cell-based. The note with it: FIG. 2(a). The protocol:
(§3) Protein samples were separated and resolved by sodium dodecylsulfate polyacrylamide gel electrophoresis (SDS-PAGE) and electrotransferred onto a polyvinylidene difluoride (PVDF) membrane. The membrane was incubated with a primary antibody at 4° C. overnight, and then incubated with a horseradish peroxidase (HRP)-conjugated secondary immunoglobulin G (IgG) antibody; immunoreactive bands were visualized with PerkinElmer enhanced chemiluminescent reagents.
Background: In western blotting, separated proteins are transferred to a membrane and probed.

Series [1] relates to COX-2. In words: COX-2 protein expression in LPS-treated RAW264.7 macrophages (Western blot). Format: cell-based. The note with it: FIG. 2(a). The method, then: as §3
The next series has as its system NF-κB. In words: NF-κB-dependent luciferase reporter assay in LPS-induced macrophages. To be noted: 0-2.5 μM; LPS 40 ng/mL 24 h; FIG. 2(b). Format: cell-based. The protocol:
RAW264.7 macrophages were seeded in a 96-well plate with DMEM. Then, cells were transfected with the pGL4.32 [luc2P/NF-κB-RE/Hygro] (Promega, Madison, Wis., USA) plasmid reporter gene using TurboFect Transfection Reagent (Fermentas, Glen Burnie, Md., USA). At 24 h after transfection, cells were treated with LPS (40 ng/mL) and F-RUT for 24 h in serum-free medium. Then the luciferase activity was detected by the luminescence measured in a luminescence microplate reader (Thermo Varioskan Flash, Waltham, Mass., USA) using a ONE-Glo luciferase assay kit (Promega). Luciferase activities were normalized to protein concentrations.

For series [2], the system named is COX-2. The series is described as follows: COX-2 enzyme activity.
For series [3], the system named is A2780 cells. In words: Wound-healing cell migration assay. To be noted: 0-5 μM, 0-24 h, FIG. 3(a). It counts as cell-based. The method, then: A2780 cells were cultured at a density of 2×10^5 cells/well in 6-well plates and incubated at 37° C. for 24 h. A centerline in the cells was scratched using a 200-μL pipette tip and washed with PBS. Then, new complete medium was added and treated with or without 1 and 2.5 μM of F-RUT for 24 h. At the endpoint of incubation, cells were examined and photographed with an optical microscope. The distance between the edges of the scratched area was measured and calculated to estimate the migratory ability of cells.
As illustrated in FIG. 3(a), wound-healing assays used an ovarian carcinoma A2780 cell line in the presence of F-RUT (0-5 μM) for 0-24 h. The migration rate was measured using imaging software, and Student's t-test was used for the statistical analysis.

Series [4] relates to A2780 cells. The series is described as follows: Transwell Matrigel cell invasion assay. The note with it: 0-2.5 μM, 24 h, FIG. 3(b). It counts as cell-based. The method, then: A2780 cell invasion was evaluated using 24-well transwell inserts (8-μm-pore filters, Merck Millipore) individually coated with Matrigel (BD Biosciences, Bedford, Mass., USA). A2780 cells (2×10^4 cells in each well) were cultured for 24 h with serum-free minimum essential medium (MEM) and then treated with F-RUT (1.25 or 2.5 μM) for another 24 h in the upper chamber of the transwell. Medium containing 10% FBS was placed in the lower chamber. At the end of incubation, non-migrated cells were removed using a cotton swab; cells that had penetrated to the opposite surface of the filter were fixed with 4% formaldehyde and stained with 2% crystal violet. Stained cells were counted and photographed under a phase-contract optical microscope at 200× magnification. Three independent experiments were performed as described elsewhere.

The next series has as its system TRPV1. In words: TRPV1 protein in human aortic endothelial cells (immunoblotting). Format: cell-based. The note with it: HAECs; 20 μM; 15 min; normalized with α-tubulin. The protocol:
as §3
(§4) TRPV1 is reportedly present in ECs of arteries. To validate the expression of TRPV1 in the endothelium, the TRPV1 protein of human aortic ECs (HAECs) was detected using immunoblotting; the method of Western Blot Analysis has been stated in Example 4. F-RUT treatment (20 μM) for 15 min increased TRPV1 protein amounts two-fold compared to the control group after normalization with α-tubulin levels (FIG. 4). The effect of F-RUT on the phosphorylation of eNOS in HAECs is further examined because NO production is consequently regulated by the phosphorylation of eNOS.

The next series deals with eNOS. In words: eNOS phosphorylation in human aortic endothelial cells (immunoblotting). It counts as cell-based. To be noted: HAECs; 20 μM; 15 min; normalized with total eNOS. The method, then:
as §3, §4

For the next series, the system named is BALB/c mice. In words: Lung inflammation in OVA/alum-challenged BALB/c mice. It counts as in vivo. The note with it: alternate-day oral administration, FIG. 5(a). The method, then:
(§5) BALB/c mice (six weeks of age) were obtained from the Animal Center of the College of Medicine, National Taiwan University (Taipei, Taiwan), and sensitized with an intraperitoneal injection of 20 μg of ovalbumin (OVA) emulsified in 2 mg of aluminum hydroxide in a total volume of 200 μL phosphate-buffered saline (PBS) on day 0, and boosted with 50 μg of OVA emulsified in 4 mg of aluminum hydroxide on days 14 and 28. RUT or F-RUT was given by oral administration on days 30, 32, 34, 36, and 38. For post-challenge, all mice were treated intranasally with OVA (100 μg in a total volume of 40 μL PBS) on days 40, 41, 42, and 43. At 24 h after the last OVA challenge, mice were sacrificed, and their organs were collected. All experimental procedures were reviewed and approved by the Institutional Animal Care and Use Committee or Panel. Lung tissues were fixed in 4% paraformaldehyde (sc-281692; Santa Biotechnology) and embedded in paraffin. Tissue sections were made at a 5-μm thickness, and stained with hematoxylin and eosin (H&E) solution for examination of inflammation.

Series [5] relates to KLF10 KO mice. The series is described as follows: Lung inflammation and collagen formation in OVA/alum-challenged KLF10 KO mice. Format: in vivo. The method, then:
as §5
KLF10 gene is regulated by transforming growth factor (TGF)-β/Smad. Deletion of Klf10 in mice is associated with significant inflammation of the lungs challenged with OVA/alum for 44 days. In another experiment, KLF-10 KO mice was used. […]

Series [6] has as its system KLF10 KO mice. The series is described as follows: Blood-air-barrier thickness by TEM in OVA/Alum-challenged KLF10 KO mice. It counts as in vivo. To be noted: KLF-10 KO mice; oral; OVA/Alum group 586 nm, control group 348 nm; FIG. 6. The protocol:
Blood-Air-Barrier (alveolar-capillary membrane), gas exchanging region of the lungs, was measured to perform the lung function. After the KLF-10 KO mice were challenged with OVA/Alum and oral administration of RUT or F-RUT, the lung was harvested to measure the thickness of blood-air-barrier by TEM. The average thickness of blood-air-barrier was significant increased in OVA/Alum group (586 nm compared to 348 nm in control group) and reversed by RUT or F-RUT (418 and 393 nm, respectively), see FIG. 6.

Another series concerns zebrafish. In words: LPS-induced ROS level in zebrafish. Format: in vivo. To be noted: 5 ng/ml F-RUT, LPS 10 and 20 ng/ml, FIG. 7.

`COc1ccc2c(=O)n3c(nc2c1)-c1[nH]c2ccc(F)cc2c1CC3` [F-RUT, 10-fluoro-2-methoxyrutaecarpine]: the NO production result in the series on RAW264.7 macrophages is “suppressed NO production in a concentration-dependent (0-20 μM) manner”. Also, the “TNF-α released into the medium” value with TNF-α is reported as “suppressive effect of TNF-α released into the medium”. In addition, the cytotoxicity entry is reported as “substantially no cytotoxicity” in the series on RAW264.7 (RAW264.7 cells, 0-20 μM, 24 h, FIG. 1(c)); “substantially no cytotoxicity” in the series on H460; “substantially no cytotoxicity” in the series on CL1-3. Further, the “cytotoxicity compared to RUT” value with RAW264.7 (compared to RUT) is given as “less cytotoxicity”. Moreover, the iNOS protein expression entry in the series with iNOS is given as “suppressed their expressions in a concentration-dependent manner”. The COX-2 protein expression entry in the series on COX-2 [1] is reported as “suppressed their expressions in a concentration-dependent manner”. The “LPS-induced NF-κB transcriptional activity” value in the series on NF-κB is on record as “inhibited LPS-induced NF-κB transcriptional activity”. The COX-2 enzyme activity result with COX-2 [2] is reported as “the enzyme activity is also inhibited”. For the same compound, in the series on A2780 cells [3], the cell migration entry is listed as “significant effects against cell migration”. The cell invasion result in the series with A2780 cells [4] was “invasion inhibitory activity”. Further, the “increase of TRPV1 protein amounts compared to the control group” value in the series on TRPV1 is given as “two-fold”. Also, in the series on eNOS, the “increase of phosphorylation of eNOS compared to the control group” value came out at 1.4 fold. In addition, the OVA/alum-induced lung inflammation entry in the series on BALB/c mice was “ameliorated the OVA/alum-induced lung inflammation”; in the series with KLF10 KO mice [5] (KLF-10 KO mice, alternate-day oral administration, FIG. 5(b)) it was “ameliorated the OVA/alum-induced lung inflammation”. Further, the “collagen formation around the bronchus” value in the series on KLF10 KO mice [5] (KLF10 KO mice, oral administration, 25% in OVA/Alum group, FIG. 5(c)) was found to be 18%. Moreover, in the series with KLF10 KO mice [6], the “average thickness of blood-air-barrier” value came to 393 nm. Moreover, the “LPS-induced ROS level” value with zebrafish is “suppressed the LPS-induced ROS”.

Consider `O=c1c2ccccc2nc2n1CCc1c-2[nH]c2ccccc12` [RUT, Rutaecarpine], for which, in the series on KLF10 KO mice [6], the “average thickness of blood-air-barrier” value worked out at 418 nm.
